These results are taken from patent publication US20200131144A1, “AMINE OR (THIO)AMIDE CONTAINING LXR MODULATORS” (Phenex-FXR GmbH, priority 2017, published 2020).

The structures appear in SMILES notation.

The target of one series is T1, LXRα full length (FL) (Homo sapiens, UniProt Q13133).
T1 construct: the full length (FL) proteins of LXRα (amino acids 1-447); NP005684; expressed in transfected cells; host or cells: HEK293
T1 sequence (Q13133 1-447): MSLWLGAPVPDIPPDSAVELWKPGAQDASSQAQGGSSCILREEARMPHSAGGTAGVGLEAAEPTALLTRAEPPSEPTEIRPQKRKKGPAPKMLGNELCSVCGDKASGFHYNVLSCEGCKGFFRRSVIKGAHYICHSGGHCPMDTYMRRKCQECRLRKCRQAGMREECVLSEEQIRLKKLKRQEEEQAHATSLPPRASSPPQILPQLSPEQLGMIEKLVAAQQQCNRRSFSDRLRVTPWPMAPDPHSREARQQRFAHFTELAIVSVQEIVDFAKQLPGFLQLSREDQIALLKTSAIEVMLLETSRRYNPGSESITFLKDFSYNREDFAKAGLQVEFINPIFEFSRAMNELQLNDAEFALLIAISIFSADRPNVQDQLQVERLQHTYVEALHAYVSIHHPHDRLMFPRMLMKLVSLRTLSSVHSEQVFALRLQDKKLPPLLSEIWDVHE
The series can be described thus: LXR Gal4 reporter transient transfection assay, mammalian two-hybrid, FL-M2H Gal4α. As to conditions: HEK293 cells; inverse agonist unless *. The series is classed as cell-based. The gist of the method:
(§1)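 HEK293 cells transiently cotransfected with NFkB-AD fusions of full-length or LBD LXRα/β, GAL4-DBD fusions of SRC1 coactivator or NCoR corepressor domains, GAL4-driven firefly luciferase and Renilla control. Compound added 4 h post-transfection (≤0.2% DMSO), 16 h incubation; firefly and Renilla luminescence read sequentially.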

In the next series the target is T2, LXRβ full length (FL) (Homo sapiens, UniProt P55055, INS174Q).
T2 construct: the full length (FL) proteins of LXRα (amino acids 1-447); NP005684; NP009052; expressed in transfected cells; host or cells: HEK293
T2 sequence (P55055 with tags, fused parts or gaps INS174Q): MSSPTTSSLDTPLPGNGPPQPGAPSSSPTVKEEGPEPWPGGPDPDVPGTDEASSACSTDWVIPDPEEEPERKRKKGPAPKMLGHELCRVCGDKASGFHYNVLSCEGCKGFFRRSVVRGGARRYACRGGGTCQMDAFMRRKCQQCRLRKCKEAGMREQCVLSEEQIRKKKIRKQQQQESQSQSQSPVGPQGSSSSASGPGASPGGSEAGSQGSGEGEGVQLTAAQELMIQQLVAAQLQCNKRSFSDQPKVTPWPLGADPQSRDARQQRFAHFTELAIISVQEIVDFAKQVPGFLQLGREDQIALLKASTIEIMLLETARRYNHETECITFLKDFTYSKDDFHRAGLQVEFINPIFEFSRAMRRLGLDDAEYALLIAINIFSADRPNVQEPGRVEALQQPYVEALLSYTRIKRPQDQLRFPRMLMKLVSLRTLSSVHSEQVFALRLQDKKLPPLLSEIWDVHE
The series can be described thus: LXR Gal4 reporter transient transfection assay, mammalian two-hybrid, FL-M2H Gal4β. The series is classed as cell-based. Conditions: HEK293 cells; inverse agonist unless *. The method, boiled down: as §1

Series [1] is described as follows: Pharmacokinetics in mice after single oral dosing, blood and liver exposure by LC-MS. Type of series: in vivo, mice (C57/bl6/J). As to conditions: single oral dose 20 mg/kg; for Kp at 4 h / Kp at 12 h / Kp at 24 h: male, C57/bl6/J, mouse, liver/blood, read-out: liver/blood ratio. The gist of the method:
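Male C57BL/6J mice fasted ≥12 h, given a single oral dose of 20 mg/kg (n=3 per group). Sacrifice at 4, 12 or 24 h post-dose; liver and blood levels quantified by LC-MS.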

Consider `Cc1cc(C)c(C(=O)N(Cc2ccc(-c3cccc(C(C)(C)C(=O)O)c3)cc2)Cc2ccc(C(F)(F)F)o2)c(C)c1` [10/1], for which the EC50 on LXRα full length (FL) and on LXRβ full length (FL) was less than 100 nM each time.

Turning to `Cc1ccc2ccccc2c1C(=O)N(Cc1ccc(-c2cccc([C@@H](C)C(=O)O)c2)cc1)Cc1ccc(C(F)(F)F)o1` [10/5], the EC50 (in general, the concentration at which the effect is half-maximal) on LXRα full length (FL) is less than 100 nM. Also, on LXRβ full length (FL), the EC50 was less than 100 nM. For the same compound, in series [1] (time point 4 h), the Kp at 4 h stood at 45, the blood/plasma exposure is 1.06 µM and the liver exposure amounted to 47.9 µM.

Take `Cc1ccc2ccccc2c1C(=O)N(Cc1ccc(-c2cc(F)c(CO)c(S(=O)(=O)CC(=O)O)c2)cc1)Cc1ccc(C(F)(F)F)o1` [22/8]: in series [1] (time point 4 h), the Kp at 4 h was 19, the blood/plasma exposure turned out to be 1.3 µM and the liver exposure worked out at 23 µM. In series [1] (time point 12 h), the Kp at 12 h stood at 27, the blood/plasma exposure worked out at 0.15 µM and the liver exposure worked out at 4.1 µM.

In the case of `Cc1ccc2ccccc2c1C(=O)N(Cc1ccc(C(F)(F)F)o1)Cc1ccc(-c2cccc(C(C)(C)C(=O)O)c2)cc1C#N` [27/7], the EC50 on LXRα full length (FL) and on LXRβ full length (FL) was less than 100 nM each time.

On to `Cc1ccc2ccccc2c1C(=O)N(Cc1ccc(-c2cccc(C(C)(O)C(=O)O)c2)cc1)Cc1ccc(C(F)(F)F)o1` (centres unmarked) [27/10], for which the EC50 at LXRα full length (FL) was less than 100 nM. On LXRβ full length (FL), this compound had an EC50 of less than 100 nM. In series [1] (time point 12 h), the Kp at 12 h came to 129, the blood/plasma exposure is 0.01 µM and the liver exposure stood at 1.3 µM.

As to `COc1ccc2c(c1CN(Cc1ccc(-c3cccc(C(C)(C)C(=O)O)c3)cc1)Cc1ccc(C(F)(F)F)o1)CCCC2` [27/17], the EC50 at LXRα full length (FL) and at LXRβ full length (FL) was less than 100 nM throughout.

On LXRα full length (FL), `Cc1ccc2ccccc2c1C(=O)N(Cc1ccc(-c2cccc(C(C)(C)C(=O)O)c2)cc1)Cc1ccc(C(F)(F)F)o1` [27/26] showed an EC50 of less than 100 nM. The compound further displayed an EC50 on LXRβ full length (FL) of less than 100 nM. Besides, in series [1] (time point 4 h), the Kp at 4 h stood at 5.5, the blood/plasma exposure was 16 µM and the liver exposure came to 89 µM. Moreover, in series [1] (time point 12 h), the Kp at 12 h stood at 3.3, the blood/plasma exposure is 6.4 µM and the liver exposure was found to be 21 µM. In series [1] (time point 24 h), the Kp at 24 h amounted to 3.6, the blood/plasma exposure is 0.75 µM and the liver exposure was 2.7 µM.

In turn, `CCOC(=O)c1ccc(CN(Cc2ccc(-c3cccc(C(C)(C)C(=O)O)c3)cc2)C(=O)c2c(C)ccc3ccccc23)o1` [27/28] yielded an EC50 on LXRα full length (FL) of less than 100 nM. Also, the EC50 at LXRβ full length (FL) is less than 100 nM. In addition, in series [1] (time point 4 h), the Kp at 4 h was 844, the blood/plasma exposure turned out to be 0.05 µM and the liver exposure was found to be 38.8 µM.

For `Cc1ccc2ccccc2c1C(=O)N(Cc1ccc(-c2cccc(C(C)(C)C(=O)O)c2)cc1)Cc1ccc(C(F)F)o1` [27/36], the EC50 at LXRα full length (FL) and on LXRβ full length (FL) was less than 100 nM throughout.

For the compound `Cc1ccc2ccccc2c1C(=O)N(Cc1ccc(-c2cccc(C(C)(C)C(=O)O)c2)cc1)Cc1ccc(C#N)o1` [27/38], the values for the EC50 at LXRα full length (FL) and at LXRβ full length (FL) were 100 to 1000 nM and less than 100 nM, respectively.

For the compound `CCc1nc2ccccc2c(C(=O)N(Cc2ccc(-c3cccc(C(C)(C)C(=O)O)c3)cc2)Cc2ccc(C(F)(F)F)o2)c1C` [27/43], on LXRα full length (FL), the EC50 was less than 100 nM. The same compound came in with an EC50 at LXRβ full length (FL) of less than 100 nM. Further, in series [1] (time point 12 h), the Kp at 12 h came out at 49, the blood/plasma exposure stood at 0.03 µM and the liver exposure worked out at 1.3 µM.

Regarding `COc1ccc2c(c1C(=O)N(Cc1ccc(-c3cccc(C(C)(C)C(=O)O)c3)cc1)Cc1ccc(C(F)(F)F)o1)CCCC2` [27/45], the EC50 at LXRα full length (FL) and at LXRβ full length (FL) was less than 100 nM each time.

For `CC(C)(C(=O)O)c1cccc(-c2ccc(CN(Cc3ccc(C(F)(F)F)o3)C(=O)c3c4ccccc4cc4ccccc34)cc2)c1` [27/47], the EC50 on LXRα full length (FL) and on LXRβ full length (FL) was less than 100 nM throughout.

With `COc1cc(-c2cccc(C(C)(C)C(=O)O)c2)ccc1CN(Cc1ccc(C(F)(F)F)o1)C(=O)c1c(C)ccc2ccccc12` [27/66], the EC50 at LXRα full length (FL) and on LXRβ full length (FL) was less than 100 nM each time.

On to `Cc1ccc2ccccc2c1C(=O)N(Cc1ccc(-c2cc(F)cc(C3(C(=O)O)CC3)c2)cc1)Cc1ccc(C(F)(F)F)o1` [27/76], for which the EC50 at LXRα full length (FL) and on LXRβ full length (FL) was less than 100 nM throughout.

Regarding `Cc1ccc2ccccc2c1C(=O)N(Cc1ccc(C(F)(F)F)o1)Cc1ncc(-c2cccc(C(C)(C)C(=O)O)c2)cc1Cl` [27/78], the EC50 on LXRα full length (FL) is less than 100 nM. In addition, the EC50 on LXRβ full length (FL) is less than 100 nM. Moreover, in series [1] (time point 4 h), the Kp at 4 h is 116, the blood/plasma exposure was 0.35 µM and the liver exposure is 40.9 µM.

In the case of `Cc1nc2ccccc2c(C(=O)N(Cc2ccc(-c3cccc(C(C)(C)C(=O)O)c3)cc2)Cc2ccc(C(F)(F)F)o2)c1C` [27/79], the EC50 at LXRα full length (FL) and on LXRβ full length (FL) was less than 100 nM throughout.

`COc1c(C)nc2ccccc2c1C(=O)N(Cc1ccc(-c2cccc(C(C)(C)C(=O)O)c2)cc1)Cc1ccc(C(F)(F)F)o1` [27/81]: the EC50 at LXRα full length (FL) and on LXRβ full length (FL) was less than 100 nM in each case.

Take `Cc1nc2cccnc2c(C(=O)N(Cc2ccc(-c3cccc(C(C)(C)C(=O)O)c3)cc2)Cc2ccc(C(F)(F)F)o2)c1C` [27/93]: the EC50 on LXRα full length (FL) and at LXRβ full length (FL) was less than 100 nM in each case.

With `Cc1ccc2ccccc2c1C(=O)N(Cc1ccc(-c2cccc(S(=O)(=O)CC(=O)O)c2)cc1)Cc1ccc(C(F)(F)F)o1` [Example 9], in series [1] (time point 4 h), the Kp at 4 h was found to be 72, the blood/plasma exposure stood at 0.18 µM and the liver exposure was found to be 12.7 µM. Further, in series [1] (time point 24 h), the Kp at 24 h is 25, the blood/plasma exposure was determined as 0.00 µM and the liver exposure worked out at 0.10 µM.

In the case of `Cc1ccc2ccccc2c1CN(Cc1ccc(-c2cccc(C(C)(C)C(=O)O)c2)cc1)Cc1ccc(C(F)(F)F)o1` [Example 24, 2-Methyl-2-(4′-((((2-methylnaphthalen-1-yl)methyl)((5-(trifluoromethyl)furan-2-yl)methyl)amino)methyl)-[1,1′-biphenyl]-3-yl)propanoic acid], the EC50 on LXRα full length (FL) was less than 100 nM. The compound further had an EC50 at LXRβ full length (FL) of less than 100 nM. In addition, in series [1] (time point 4 h), the Kp at 4 h stood at 11, the blood/plasma exposure is 0.96 µM and the liver exposure stood at 10.3 µM. Further, in series [1] (time point 12 h), the Kp at 12 h was 5.7, the blood/plasma exposure was determined as 0.21 µM and the liver exposure came to 1.2 µM. Besides, in series [1] (time point 24 h), the Kp at 24 h was determined as 2.9, the blood/plasma exposure is 0.04 µM and the liver exposure stood at 0.13 µM.
